Test results: US6538037B2, “Methods for preparation and use of 1α,24(S)-dihydroxyvitamin D2” (Bone Care International, Inc., priority 1991, dated 2003)

What was measured:
Hep 3B cells = assay: Metabolism of 1α-OH-D2 in Hep 3B cells; format: in vitro ADME, human; details: photodiode array spectrophotometry
Procedure: Substantially pure 1α-(OH)D2 was obtained from Bone Care International, Inc. of Madison, Wis. The 1α-(OH)D2 was cultured for 48 hours with cells derived from a human hepatoma, Hep 3B, in medium devoid of fetal calf serum using known methods in the art.
Lipid extracts of the combined medium and cells were generated by known methods in the art and were subjected to high pressure liquid chromatography (HPLC) on Zorbax-S1L developed with hexane/isopropano/methanol (91:7:2). The putative 1α,24(?)-(OH)2D2 metabolite eluted between the parent 1α-(OH)D2 and standard 1α,25-(OH)2D2 (also obtained from Bone Care International, Inc. of Madison, Wis.). (As used herein, the term “1α,24(?)-(OH)2D2” is meant to indicate that the epimeric form has not been identified.) The 1α,24(?)-(OH)2D2 was further purified by this HPLC system before the metabolite's identification was undertaken using mass spectrometry analysis.
Hep 3B cells were incubated with 1α-OH-D2, as described above, at final concentrations of 1, 10, or 100 nM (Experiment 1), and 1 or 10 μM (Experiment 2) and 1α,24(S)-(OH)2D2 was extracted and purified. The 1α,24(S)-(OH)2D2 and 1α,25-(OH)2D2 metabolites were quantitated by recovered radiolabel (Experiment 1) or by photodiode array spectrophotometry (Experiment 2).

[1] = Preventive treatment of bone mass loss in postmenopausal osteoporotic women; format: in vivo, human; details: at or above 1.0 μg/day, 24 to 36 months
Procedure: A clinical study is conducted with postmenopausal osteoporotic out-patients having ages between 55 and 75 years. The study involves up to 120 patients randomly divided into three treatment groups and continues for 24 to 36 months. Two of the treatment groups receive constant dosages of 1α,24(S)-dihydroxyvitamin D2 (u.i.d.; two different dose levels at or above 1.0 μg/day) and the other group receives a matching placebo. All patients maintain a normal intake of dietary calcium (500 to 800 mg/day) and refrain from using calcium supplements. Efficacy is evaluated by pre-and post-treatment comparisons of the patient groups with regard to (a) total body calcium retention, and (b) radial and spinal bone mineral density as determined by dual-photon absorptiometry (DPA) or dual-energy x-ray absorptiometry (DEXA). Safety is evaluated by comparisons of urinary hydroxyproline excretion, serum and urine calcium levels, creatinine clearance, blood urea nitrogen, and other routine determinations.

[2] = Dermatological testing, topical treatment of dermatitis; format: in vivo, human; details: ointment 10 μg per gram, twice daily
Procedure: Compositions containing 1α,24(S)-dihydroxyvitamin D2 are evaluated for therapeutic efficacy of the composition in the topical treatment of dermatitis (contact and ectopic). The composition evaluated is an ointment containing 10 μg of 1α,24-dihydroxyvitamin D2 per gram of ointment in a petrolatum-almond oil base. […] The patients are treated in an out-patient clinic. They are instructed to use the preparation two times a day.
The ointment is as far as possible applied to a single lesion, or to an area of the disease. The ointment and its container are weighed before the treatment starts and returned with any unused contents for reweighing at the end of the treatment.
The area of the lesion treated is estimated and recorded, and the lesion is photographed as required, together with suitable “control” lesions. The latter are preferably lesions of similar size and stage of development, either in the vicinity of the treated lesion or symmetrically contralateral. Relevant details of the photographic procedure are recorded so as to be reproduced when the lesions are next photographed (distance, aperture, angle, background, etc.). The ointment is applied twice daily and preferably left uncovered. The “control” lesions are left untreated, but if this is not possible, the treatment used on them is noted. […]

Human keratinocytes = assay: Epidermal cell differentiation and proliferation testing; format: cell-based; details: 0.05 to 5 μg/ml, versus control cultures
Procedure: Human keratinocytes are cultured according to known modifications of the system originally described by Rheinwald and Green (Cell, vol.6, p.331 (1975)). The 1α,24(S)-dihydroxyvitamin D2, dissolved in ethanol, is added to cells to yield a variety of concentrations between 0.05 and 5 μg/ml with the ethanol concentration not to exceed 0.5% v/v. Control cultures are supplemented with ethanol at a final concentration of 0.5% v/v. Differentiation and proliferation of epidermal cells in culture is examined by:
1. quantitation of cornified envelopes;
2. quantitation of cell density of cells attached to disks;
3. monitoring transglutaminase activity; or
4. monitoring DNA synthesis by incorporation of ^3H-thymidine.

[3] = test system: human cancer cell lines BCA-1 or ZR-75-1 (breast) and COL-1 (colon); assay: Antiproliferative activity in human cancer cell lines (thymidine incorporation); format: cell-based; details: dose-response studies
Procedure: Dose-response studies are conducted with 1α,24(S)-(OH)2D2 in a battery of human cancer cell lines. These cell lines include, but are not limited to, the following: BCA-1 or ZR-75-1 (breast) and COL-1 (colon), as described by Shieh, H. L. et al. Chem. Biol. Interact., vol. 81, pp. 35-55 (1982). In this study, appropriate solvents are used as negative controls.

[4] = test system: vitamin D receptor positive tumor; assay: General treatment of cancers, open-label study; format: in vivo, human; details: after 18 months
From the text: Patients with a known vitamin D receptor positive tumor (e.g., adenocarcinoma of the prostate, breast, lung, colon or pancreas, or transitional cell carcinoma of the bladder, or melanoma) participate in an open-label study of 1α,24(S)-(OH)2D2. Patients are placed on a reduced calcium diet prior to treatment, to help minimize intestinal absorption and allow ever higher doses of 1α,24(S)-dihydroxyvitamin D2. This reduced calcium diet may be continued for the duration of treatment, and for one week after the last dose of the 1α,24(S)-dihydroxyvitamin D2. The diet ideally restricts daily calcium intake to 400-500 mg. Patients also discontinue use of any vitamin supplements or vitamin D replacement therapies. Each patient is also asked to drink 4-6 cups of fluid more than usual intake to assure adequate oral hydration.
Each subject is monitored at regular intervals for: (1) hypercalcemia, hyperphosphatemia, hypercalciuria, hyperphosphaturia and other toxicity; (2) evidence of changes in the progression of metastatic disease; and (3) compliance with the prescribed test drug dosage.
The dosing regimen is typically on a daily dose basis of 10 μg or 20 μg per day to about 100 μg/day for 24 months. Alternatively, a non-daily dosing regimen can be used, e.g., 40 μg given every other day, 100 μg given once a week. […]

C=C1/C(=C\C=C2/CCC[C@]3(C)[C@@H]([C@H](C)/C=C/[C@@](C)(O)C(C)C)CC[C@@H]23)C[C@@H](O)C[C@@H]1O [1α,24(S)-(OH)2D2, 1α,24(S)-dihydroxyvitamin D2]
Rate of Production (Hep 3B cells; Experiment 2, substrate 1α-OH-D2 1 μM): 4.9 pmol per 10^6 cells/day
Rate of Production (Hep 3B cells; Experiment 2, substrate 1α-OH-D2 10 μM): 59 pmol per 10^6 cells/day
incidence of hypercalcemia or hypercalciuria [1]: insignificant incidence of hypercalcemia or hypercalciuria
total body calcium, radial and spinal bone densities relative to placebo [1]: significantly higher total body calcium, and radial and spinal bone densities
incidence of hypercalcemia [2]: insignificant incidence of hypercalcemia
lesion severity scores (erythema, scaling, thickness; 0 to 3) ([2]; four to six weeks): lower scores than the control lesions
DNA synthesis by incorporation of 3H-thymidine (Human keratinocytes): lower DNA synthesis
cell density of cells attached to disks (Human keratinocytes): fewer attached cells
cornified envelopes (Human keratinocytes): more cornified envelopes
transglutaminase activity (Human keratinocytes): higher transglutaminase activity
antiproliferative activity, inhibition of thymidine incorporation [3]: potent (and reversible) antiproliferative activity
progress of metastatic disease (CAT scans, X-rays, bone scans) ([4]; higher dosage): stable disease and partial or complete remission in many patients
progress of metastatic disease (CAT scans, X-rays, bone scans) ([4]; lower dosage): partial remission in many patients
